Results taken from US9061060B2, “Deuterated benzylbenzene derivatives and methods of use” (Theracos Inc., priority 2008, dated 2015).

Tests used:
[1] = Pharmacokinetic parameters in SD rats; format: in vivo, Sprague-Dawley rats; conditions: single oral 3 mg/kg in 30% PEG400, plasma; for CL/F / AUC(0-t) / Cmax / Tmax / half-life: Sprague-Dawley, rat; for AUC(0-t): read-out: AUC0-t (mean ± SD); for half-life: read-out: t1/2 (mean ± SD) (converted)
Method: The pharmacokinetic study of each test compound was conducted in 4 Sprague-Dawley rats following a single oral administration of 3 mg/kg of the compound. The dose was prepared by dissolving test article in appropriate volume of 30% PEG400. The plasma samples were collected from the orbital plexus at 0.083, 0.25, 0.50, 1.0, 2.0, 4.0, 6.0, 8.0, 12 and 24 hours post dose, and the plasma concentrations were determined by a developed LC-MS/MS method.

[2] = molecular target: T1, CYP1A2 (Homo sapiens, UniProt P05177); assay: P450-Glo CYP screening kit, CYP1A2 inhibition; format: in vitro ADME; conditions: luminescence, read-out: IC50 1A2
T1 construct: purchased Promega
T1 sequence (P05177 1-516): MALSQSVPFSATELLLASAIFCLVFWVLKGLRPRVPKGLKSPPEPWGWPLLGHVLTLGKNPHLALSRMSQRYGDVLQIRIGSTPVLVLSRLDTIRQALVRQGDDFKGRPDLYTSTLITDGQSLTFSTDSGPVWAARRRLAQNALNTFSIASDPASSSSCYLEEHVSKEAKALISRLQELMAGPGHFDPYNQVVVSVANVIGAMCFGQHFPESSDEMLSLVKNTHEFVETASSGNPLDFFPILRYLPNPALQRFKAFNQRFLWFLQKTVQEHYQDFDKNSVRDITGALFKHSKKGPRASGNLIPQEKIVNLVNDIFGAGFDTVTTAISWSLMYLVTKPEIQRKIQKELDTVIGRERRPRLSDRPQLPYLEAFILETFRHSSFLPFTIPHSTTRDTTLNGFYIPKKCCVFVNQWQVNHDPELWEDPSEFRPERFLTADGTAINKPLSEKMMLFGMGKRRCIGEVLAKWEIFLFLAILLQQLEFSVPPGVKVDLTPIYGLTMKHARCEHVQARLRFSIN
From the text: (§1) P450-Glo™ CYP Screening Kits for CYP1A2, CYP3A4 and CYP2C19 were purchased from Promega. […] Luminescence was quantified using a Victor 3 spectrophotometer (PerkinElmer).

[3] = system: SD rats; assay: Urinary glucose excretion in SD rats; format: in vivo; conditions: 1 mg/kg oral; for Urinary Glucose Excretion in Rats, 0-4 h (mean ± SD) / Urinary Glucose Excretion in Rats, 0-24 h (mean ± SD) / Urinary Glucose Excretion in Rats, 4-24 h (mean ± SD): glucose 2 g/kg 1 h post dose
Method: Each test compound was dissolved in 30% PEG400 and administered orally to overnight-fasted SD rats by gavage at the dose level of 1 mg/kg. Control rats were given 30% PEG400 only. One hour post dosing, glucose solution (2 g/kg, 10 mL/kg) was administered by oral gavage. Urine was collected within metabolic cages from 0 to 4 hours, and 4 to 24 hours post-dosing for urine volume and glucose measurement. Food was removed 16 hours before dosing and then provided 4 hours after dosing. Water was supplied ad libitum. The concentration of urinary glucose was determined at 4 hours and 24 hours post-dose using a biochemistry analyzer. Results were recorded for the periods 0-4 hours, 4-24 hours and 0-24 hours, and expressed as a percentage of the urinary glucose excretion (UGE) seen with reference compound A, which was run as a positive control in all experiments.

[4] = molecular target: T2, CYP3A4 (Homo sapiens, UniProt P08684); assay: P450-Glo CYP screening kit, CYP3A4 inhibition; format: in vitro ADME; conditions: luminescence, read-out: IC50 3A4
T2 construct: purchased Promega
From the text: as §1

[5] = molecular target: T3, CYP2C19 (Homo sapiens, UniProt P33261); assay: P450-Glo CYP screening kit, CYP2C19 inhibition; format: in vitro ADME; conditions: luminescence, read-out: IC50 2C19
T3 construct: purchased Promega
From the text: as §1

[6] = Pharmacokinetic parameters in Beagle dogs; format: in vivo; conditions: dog, single oral 1 mg/kg in 30% PEG400, plasma; for AUC(0-t): read-out: AUC0-t (mean ± SD); for CL/F: read-out: CL/F (mean ± SD) (converted); for Cmax: read-out: Cmax (mean ± SD); for Tmax: read-out: tmax (mean ± SD)
Method: The pharmacokinetic study of each test compound was conducted in three Beagle dogs following a single oral administration of 1 mg/kg of the compound. The dose was prepared by dissolving test article in appropriate volume of 30% PEG400. The plasma samples were collected from the cephalic vein pre-dose and at 0.25, 0.50, 1.0, 2.0, 4.0, 6.0, 8.0, 12 and 24 hours post dose, and the plasma concentrations were determined by a developed LC-MS/MS method.

[7] = system: beagle dogs; assay: Urinary glucose excretion in beagle dogs; format: in vivo
Method: Each test compound was dissolved in 10% PEG400 and administered orally to overnight-fasted beagle dogs by gavage at the dose level of 0.03 mg/kg. Control dogs were given 10% PEG400 only. One hour post dosing, glucose solution (2 g/kg, 5 mL/kg) was administered by oral gavage. Urine was collected within metabolic cages from 0 to 8 hours, and 8 to 24 hours post-dosing for urine volume and glucose measurement. Food was removed 16 hours before dosing and then provided 3 hours after dosing. Water was supplied ad libitum. The concentration of urinary glucose was determined at 8 hours and 24 hours post-dose using a biochemistry analyzer.

[8] = separate experiment (Table 4A), 0-24 h
[9] = 0.03 mg/kg oral, glucose 2 g/kg 1 h post dose, 0-8 h (Table 4)
[10] = 0.03 mg/kg oral, glucose 2 g/kg 1 h post dose, 0-24 h (Table 4)
[11] = 0.03 mg/kg oral, glucose 2 g/kg 1 h post dose, 8-24 h (Table 4)

T3 sequence (P33261 whole entry): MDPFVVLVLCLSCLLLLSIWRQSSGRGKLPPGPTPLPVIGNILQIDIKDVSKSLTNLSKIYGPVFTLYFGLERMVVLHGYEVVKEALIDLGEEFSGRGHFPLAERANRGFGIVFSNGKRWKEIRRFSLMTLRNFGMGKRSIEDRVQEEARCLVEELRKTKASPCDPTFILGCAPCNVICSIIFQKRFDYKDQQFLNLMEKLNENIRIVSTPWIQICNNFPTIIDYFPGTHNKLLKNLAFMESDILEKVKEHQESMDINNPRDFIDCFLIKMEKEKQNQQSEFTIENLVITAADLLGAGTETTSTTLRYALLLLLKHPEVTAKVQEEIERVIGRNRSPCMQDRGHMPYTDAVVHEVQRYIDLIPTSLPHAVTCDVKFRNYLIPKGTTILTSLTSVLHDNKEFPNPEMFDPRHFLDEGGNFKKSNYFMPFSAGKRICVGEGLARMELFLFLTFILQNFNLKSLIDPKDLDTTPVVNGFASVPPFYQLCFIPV
T2 sequence (P08684 whole entry): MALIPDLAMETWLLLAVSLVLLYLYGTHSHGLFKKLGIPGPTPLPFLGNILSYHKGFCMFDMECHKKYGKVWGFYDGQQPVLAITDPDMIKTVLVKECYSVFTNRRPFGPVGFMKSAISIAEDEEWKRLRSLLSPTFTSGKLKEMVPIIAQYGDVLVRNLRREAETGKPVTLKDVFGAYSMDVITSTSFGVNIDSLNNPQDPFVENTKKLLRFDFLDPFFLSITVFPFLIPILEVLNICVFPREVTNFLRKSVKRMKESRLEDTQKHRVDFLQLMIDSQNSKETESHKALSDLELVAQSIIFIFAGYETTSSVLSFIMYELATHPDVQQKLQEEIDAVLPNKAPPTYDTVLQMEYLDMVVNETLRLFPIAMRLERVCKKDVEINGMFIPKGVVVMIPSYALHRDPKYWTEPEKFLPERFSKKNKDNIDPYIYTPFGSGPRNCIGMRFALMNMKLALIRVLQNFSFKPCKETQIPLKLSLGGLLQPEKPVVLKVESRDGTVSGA

[2H]C([2H])(C)Oc1ccc(Cc2cc([C@@H]3O[C@H](CO)[C@@H](O)[C@H](O)[C@H]3O)ccc2Cl)cc1 [24a, (2S,3R,4R,5S,6R)-2-(4-chloro-3-(4-(ethoxy-1,1′-d)benzyl)phenyl)-6-(hydroxymethyl)tetrahydro-2H-pyran-3,4,5-triol]
CL/F [1]: 2.4 mL/min/kg | AUC(0-t) [1]: 20300 ± 1610 ng·h/mL | Cmax (mean ± SD) [1]: 2923 ± 393 ng/mL | t1/2 (mean ± SD) [1]: 4.56 ± 0.64 h | tmax (mean ± SD) [1]: 0.88 ± 0.75 h

[2H]C([2H])([2H])Oc1ccc(Cc2cc([C@@H]3O[C@H](CO)[C@@H](O)[C@H](O)[C@H]3O)ccc2Cl)cc1 [24d, (2S,3R,4R,5S,6R)-2-(4-chloro-3-(4-(methoxy-d3)benzyl)phenyl)-6-(hydroxymethyl)tetrahydro-2H-pyran-3,4,5-triol]
IC50 [2]: > 1000 µM | Urinary Glucose Excretion in Rats, 0-4 h, % relative to Ref A [3]: 131% | Urinary Glucose Excretion in Rats, 0-24 h, % relative to Ref A [3]: 92% | Urinary Glucose Excretion in Rats, 4-24 h, % relative to Ref A [3]: 89% | Urinary Glucose Excretion in Rats, 0-4 h (mean ± SD) [3]: 251 ± 44 mg | Urinary Glucose Excretion in Rats, 0-24 h (mean ± SD) [3]: 2234 ± 199 mg | Urinary Glucose Excretion in Rats, 4-24 h (mean ± SD) [3]: 1983 ± 167 mg | CL/F [1]: 7.18 mL/min/kg | AUC(0-t) [1]: 6680 ± 350 ng·h/mL | Cmax (mean ± SD) [1]: 1494 ± 428 ng/mL | t1/2 (mean ± SD) [1]: 6.34 ± 2.79 h | tmax (mean ± SD) [1]: 1.19 ± 0.94 h | IC50 [4]: ~1000 µM | IC50 [5]: 120 µM

[2H]C([2H])([2H])Oc1ccc(Cc2cc([C@]3([2H])O[C@H](CO)[C@@H](O)[C@H](O)[C@H]3O)ccc2Cl)cc1 [24e, (2S,3R,4R,5S,6R)-2-(4-chloro-3-(4-(methoxy-d3)benzyl)phenyl)-6-(hydroxymethyl)tetrahydro-2H-pyran-2-d-3,4,5-triol]
Urinary Glucose Excretion in Rats, 0-4 h, % relative to Ref A [3]: 162% | Urinary Glucose Excretion in Rats, 0-24 h, % relative to Ref A [3]: 101% | Urinary Glucose Excretion in Rats, 4-24 h, % relative to Ref A [3]: 97% | Urinary Glucose Excretion in Rats, 0-4 h (mean ± SD) [3]: 236 ± 48 mg | Urinary Glucose Excretion in Rats, 0-24 h (mean ± SD) [3]: 2525 ± 266 mg | Urinary Glucose Excretion in Rats, 4-24 h (mean ± SD) [3]: 2288 ± 287 mg

OC[C@H]1O[C@@H](c2ccc(Cl)c(Cc3ccc(C4CC4)cc3)c2)[C@H](O)[C@@H](O)[C@@H]1O [Ref C, (2S,3R,4R,5S,6R)-2-(4-chloro-3-(4-cyclopropylbenzyl)phenyl)-6-(hydroxymethyl)tetrahydro-2H-pyran-3,4,5-triol, reference compound]
CL/F [1]: 5.2 mL/min/kg | Cmax [1]: 1050 ± 230 ng/mL | Tmax [1]: 3 ± 1.15 h | AUC(0-t) [1]: 9770 ± 2180 ng·h/mL | half-life [1]: 4.28 ± 0.8 h

OC[C@H]1O[C@@H](c2ccc(Cl)c(Cc3ccc(OCCOCC(F)F)cc3)c2)[C@H](O)[C@@H](O)[C@@H]1O [Ref F, (2S,3R,4R,5S,6R)-2-(4-chloro-3-(4-(2-(2,2-difluoroethoxy)ethoxy)benzyl)phenyl)-6-(hydroxymethyl)tetrahydro-2H-pyran-3,4,5-triol, reference compound]
AUC(0-t) [6]: 4920 ± 484 ng·h/mL | CL/F [6]: 3.17 mL/min/kg | Cmax [6]: 889 ± 65.4 ng/mL | Tmax [6]: 0.4 ± 0.1 h | Urinary Glucose Excretion in Dogs, 0-8 h (mean ± SD) ([7]; separate experiment (Table 4A), 0-8 h): 1927 ± 307 mg | Urinary Glucose Excretion in Dogs, 0-24 h (mean ± SD) [7, 8]: 13438 ± 5237 mg | Urinary Glucose Excretion in Dogs, 8-24 h (mean ± SD) ([7]; separate experiment (Table 4A), 8-24 h): 11511 ± 5327 mg

OC[C@H]1O[C@@H](c2ccc(Cl)c(Cc3ccc(OCCOC4CC4)cc3)c2)[C@H](O)[C@@H](O)[C@@H]1O [Ref G, (2S,3R,4R,5S,6R)-2-(4-chloro-3-(4-(2-cyclopropoxyethoxy)benzyl)phenyl)-6-(hydroxymethyl)tetrahydro-2H-pyran-3,4,5-triol, reference compound]
CL/F [1]: 11.8 mL/min/kg | Cmax [1]: 594 ± 85.8 ng/mL | Tmax [1]: 1.88 ± 1.55 h | AUC(0-t) [1]: 4240 ± 405 ng·h/mL | half-life [1]: 3.39 ± 0.68 h

[2H][C@@]1(c2ccc(Cl)c(Cc3ccc(OCC)cc3)c2)O[C@H](CO)[C@@H](O)[C@H](O)[C@H]1O [compound 5, (2S,3R,4R,5S,6R)-2-(4-chloro-3-(4-ethoxybenzyl)phenyl)-6-(hydroxymethyl)tetrahydro-2H-pyran-2-d-3,4,5-triol]
IC50 [2]: 500 to 1000 µM | Urinary Glucose Excretion in Rats, 0-24 h (mean ± SD) [3]: 2650 ± 385 mg | Urinary Glucose Excretion in Rats, 4-24 h (mean ± SD) [3]: 2457 ± 369 mg | Urinary Glucose Excretion in Dogs, 0-8 h (mean ± SD) [7, 9]: 3765 ± 808 mg | Urinary Glucose Excretion in Dogs, 0-24 h (mean ± SD) [7, 10]: 12676 ± 2150 mg | Urinary Glucose Excretion in Dogs, 8-24 h (mean ± SD) [7, 11]: 8910 ± 1700 mg | IC50 [4]: 500 to 1000 µM | IC50 [5]: 104 µM

[2H]C([2H])(c1ccc(OC([2H])([2H])C([2H])([2H])[2H])cc1)c1cc([C@@H]2O[C@H](CO)[C@@H](O)[C@H](O)[C@H]2O)ccc1Cl [compound 16, (2S,3R,4R,5S,6R)-2-(4-chloro-3-((4-(ethoxy-d5)phenyl)methyl-d2)phenyl)-6-(hydroxymethyl)tetrahydro-2H-pyran-3,4,5-triol]
CL/F [1]: 2.3 mL/min/kg | AUC(0-t) [1]: 21000 ± 4370 ng·h/mL | Cmax (mean ± SD) [1]: 2683 ± 471 ng/mL | t1/2 (mean ± SD) [1]: 5.70 ± 0.63 h | tmax (mean ± SD) [1]: 1.00 ± 0.71 h | Urinary Glucose Excretion in Dogs, 0-8 h (mean ± SD) [7, 9]: 4362 ± 818 mg | Urinary Glucose Excretion in Dogs, 0-24 h (mean ± SD) [7, 10]: 15357 ± 2514 mg | Urinary Glucose Excretion in Dogs, 8-24 h (mean ± SD) [7, 11]: 10995 ± 1987 mg

[2H]C([2H])(c1ccc(C2CC2)cc1)c1cc([C@@H]2O[C@H](CO)[C@@H](O)[C@H](O)[C@H]2O)ccc1Cl [compound 54, (2S,3R,4R,5S,6R)-2-(4-chloro-3-((4-cyclopropylphenyl)methyl-d2)phenyl)-6-(hydroxymethyl)tetrahydro-2H-pyran-3,4,5-triol]
CL/F [1]: 4.4 mL/min/kg | Cmax [1]: 1270 ± 138 ng/mL | Tmax [1]: 2 h | AUC(0-t) [1]: 10600 ± 1600 ng·h/mL | half-life [1]: 6.08 ± 1.92 h

[2H]C([2H])(c1ccc(OCCOCC(F)F)cc1)c1cc([C@@H]2O[C@H](CO)[C@@H](O)[C@H](O)[C@H]2O)ccc1Cl [compound 87, (2S,3R,4R,5S,6R)-2-(4-chloro-3-((4-(2-(2,2-difluoroethoxy)ethoxy)phenyl)methyl-d2)phenyl)-6-(hydroxymethyl)-tetrahydro-2H-pyran-3,4,5-triol]
AUC(0-t) [6]: 8880 ± 1440 ng·h/mL | CL/F [6]: 1.85 mL/min/kg | Cmax [6]: 1580 ± 282 ng/mL | Tmax [6]: 0.6 ± 0.4 h | Urinary Glucose Excretion in Dogs, 0-24 h (mean ± SD) [7, 8]: 16858 ± 674 mg

[2H]C([2H])(COc1ccc(Cc2cc([C@@H]3O[C@H](CO)[C@@H](O)[C@H](O)[C@H]3O)ccc2Cl)cc1)OC1CC1 [compound 95, (2S,3R,4R,5S,6R)-2-(4-chloro-3-(4-(2-cyclopropoxy(ethoxy-2,2-d2))benzyl)phenyl)-6-(hydroxymethyl)tetrahydro-2H-pyran-3,4,5-triol]
CL/F [1]: 9.2 mL/min/kg | Cmax [1]: 710 ± 76.4 ng/mL | Tmax [1]: 2.13 ± 1.44 h | AUC(0-t) [1]: 5240 ± 328 ng·h/mL | half-life [1]: 4.83 ± 1.42 h
